Earlier results on one molecule are cited in patent publication US20160008334A1, “Preparations for the Treatment of Sleep-Related Respiratory Disorders” (priority 2013, published 2016).

For the series the following is noted: compared with the barbiturate phenobarbital; one study (drugbank.ca DB00366).

Molecules are shown by their SMILES.

As for `CN(C)CCOC(C)(c1ccccc1)c1ccccn1` (stereo not shown) [doxylamine succinate], the “effectiveness for use as a sedative” value is recorded as “more effective than the barbiturate phenobarbital”.
